Test results: patent US20030166721A1, “Choline derivative for the treatment of alzheimer's disease” (priority 2000, published 2003)

Tests used:
[1] = molecular target: T1, Choline Specific Transport System (HUCT) (Rattus norvegicus, UniProt Q9JMD7); experiment: EEG after ICV Hemicholinium-3 (choline uptake blocker) pretreatment; assay type: in vivo; details: rats, ICV 1 μg-0.1 ng
T1 construct: from tissue; host or cells: brain of living Wistar rats (in vivo, ICV microinfusion, EEG read-out)
T1 sequence (Q9JMD7 1-580): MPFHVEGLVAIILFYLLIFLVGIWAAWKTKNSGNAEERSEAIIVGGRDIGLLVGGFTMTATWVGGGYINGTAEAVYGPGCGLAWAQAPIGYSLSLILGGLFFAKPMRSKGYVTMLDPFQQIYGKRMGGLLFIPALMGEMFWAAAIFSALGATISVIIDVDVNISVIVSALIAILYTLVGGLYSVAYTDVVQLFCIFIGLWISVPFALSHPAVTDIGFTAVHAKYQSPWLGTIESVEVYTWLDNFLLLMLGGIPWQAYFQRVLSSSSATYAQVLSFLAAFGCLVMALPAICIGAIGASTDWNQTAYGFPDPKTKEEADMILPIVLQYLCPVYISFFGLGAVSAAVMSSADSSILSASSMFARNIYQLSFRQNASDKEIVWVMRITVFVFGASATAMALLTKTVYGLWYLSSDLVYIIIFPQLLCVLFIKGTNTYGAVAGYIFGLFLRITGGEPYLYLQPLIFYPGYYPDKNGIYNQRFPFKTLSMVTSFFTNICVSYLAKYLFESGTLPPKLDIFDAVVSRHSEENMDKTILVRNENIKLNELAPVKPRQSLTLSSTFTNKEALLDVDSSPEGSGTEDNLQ
Experimental: FIG. 4B—Effect on EEG spectrum power after treatment with PC-1 (5 mg i.p.) administered 15 min after microinfusion of Hch3 (0.1 ng/0.5 μl) in the III ventricule. As in FIG. 4a, time (min) is reported in abscissa, the EEG spectrum power expressed as μV^2/s is reported in ordinate. Graphics report the EEG spectrum total power (0.25-16 Hz).

Wistar rats [2] = experiment: Behavioural and EEG effects in rats at different doses; assay type: in vivo, rat
Experimental: Young male Wistar rats (200-260) were used in the experiments, housed in a standard temperature and humidity conditions, with food and water ad libitum.
The animals, anaesthetised with chloral hydrate (400 mg/kg) […], were stereotaxically implanted (Kopft Instruments) with cortical electrodes (n=4) onto the fronto-parietal region of the neocortex on both cerebral hemispheres, to record EEG. After surgery all animals were housed 48 h to allow a complete recovery.
48 Hours after electrode implantation, the animals, placed in a transparent box and freely moving, were connected with an electroencephalograph and the electrocortical activity was continuously monitored and recorded. After a 30 min control time, the compounds under test were intraperitoneally administered and EEG recording was continued for 90-120 min
EEG was recorded by computerised 24-channels apparatus (Vega 24, Galileo type, ESA-OTE Biomedica, Florence, Italy), while the spectrum activity was quantitatively analysed by a Berg Fourier analyser (ESA-OTE Biomedica, Florence, Italy). The total EEG power (0.25-16 Hz range) was divided into 5 variable frequency bands: δ 0.25-3 Hz, θ 3-6; α1 6-9; α2 9-12 and β12-16 Hz.
The EEG patterns and behavioral effects observed in the rat after administration of the choline derivatives and of the vehicle is reported in 5 Tab. 3. Such effects can be ascribed to the changes of EEG spectrum total power. An […] in EEG total power is related with the presence of slow frequency waves (synchronisation), whereas an […] thereof is related with the presence of rapid frequency waves (desynchronisation).

Wistar rats [3] = experiment: EEG spectral qualitative and quantitative analysis in freely moving rats after i.p. administration; assay type: in vivo, rat; details: for EEG frequency band 0.25-3 Hz / EEG frequency band 3-6 Hz / EEG frequency band 6-9 Hz / EEG frequency band 9-12 Hz / EEG frequency band 12-16 Hz: after i.p. administration, % ± SEM; for Effect of atropine given 15 min before the compound: atropine pretreatment; for EEG total power (fronto-parietal cortex), Baseline: before i.p. injection (vol. 0.5 ml); for EEG total power (fronto-parietal cortex), Baseline / EEG total power (fronto-parietal cortex), 15′ / EEG total power (fronto-parietal cortex), 30′ / EEG total power (fronto-parietal cortex), 45′ / EEG total power (fronto-parietal cortex), 60′ / EEG total power (fronto-parietal cortex), 75′ / EEG total power (fronto-parietal cortex), 90′: mean ± SEM, 7 tests; for EEG total power (fronto-parietal cortex), 15′ / EEG total power (fronto-parietal cortex), 30′ / EEG total power (fronto-parietal cortex), 45′ / EEG total power (fronto-parietal cortex), 60′ / EEG total power (fronto-parietal cortex), 75′ / EEG total power (fronto-parietal cortex), 90′: i.p. (vol. 0.5 ml)
Experimental: Young male Wistar rats (200-260) were used in the experiments, housed in a standard temperature and humidity conditions, with food and water ad libitum. […] After surgery all animals were housed 48 h to allow a complete recovery. 48 Hours after electrode implantation, the animals, placed in a transparent box and freely moving, were connected with an electroencephalograph and the electrocortical activity was continuously monitored and recorded. […] Qualitative and quantitative analysis on the electrocortical activity EEG recording was subsequently carried out. The animals were divided in 4 groups, the first group acted as the control, the second received cytidine-5′-diphosphocholine (CDP-choline), the third and fourth received PC-1 and PC-2, respectively (pivaloylcholine iodide and pivaloyleholine trimethylacetate, respectively). The control group received an equal volume of saline solution by the same procedure. […] Statistical analysis was performed by analysis of variance (ANOVA) for multiple measurements followed, if significant, by the post-hoc Tuckey-Kramer test. A comparison between groups was performed to exclude any individual variability.

rats = experiment: Synergistic effect with tacrine: qEEG of neocortical activity in rats; assay type: in vivo, rat; details: n=7; for EEG power (qEEG of neocortical activity), 15″ / EEG power (qEEG of neocortical activity), 30″ / EEG power (qEEG of neocortical activity), 45″ / EEG power (qEEG of neocortical activity), 60″ / EEG power (qEEG of neocortical activity), 75″ / EEG power (qEEG of neocortical activity), 90″ / EEG power (qEEG of neocortical activity), 105″ / EEG power (qEEG of neocortical activity), 120″ / EEG power (qEEG of neocortical activity), 135″: rats i.p., PC-1/PC-2 15 μmol/2 ml/kg, THA 5 mg/kg 30 min before, atropine 0.1 mg/kg 15 min before; for EEG power (qEEG of neocortical activity), Baseline: before i.p. treatment
Experimental: Results reported in Table 5 show the synergistic effect of the combination of tacrine with the choline derivatives of the present invention.
Vehicle: 2 ml/Kg; all drugs were administered i.p., PC-1 and PC-2 at corresponding equimolar doses (15 μmol/2 ml/kg^−1); THA (tacrine) (5 mg/kg) was administered 30 min before compounds; atropine (0.1 mg/kg) was injected 15 min before PC-1 and PC-2. The number of animals was 7 per each group. Values represent EEG power (μV/s).

Row | Molecule | Behaviour (Wistar rats [2]; 5 mg) | EEG Activity (change of EEG total power) (Wistar rats [2]; 5 mg) | Behaviour (Wistar rats [2]; 50 mg) | EEG Activity (change of EEG total power) (Wistar rats [2]; 50 mg) | Time to onset of EEG desynchronization and significant decrease in EEG total power (Wistar rats [3]; 5 mg i.p.) [min] | EEG frequency band 0.25-3 Hz (Wistar rats [3]) | EEG frequency band 3-6 Hz (Wistar rats [3]) | EEG frequency band 6-9 Hz (Wistar rats [3]) [%] | EEG frequency band 9-12 Hz (Wistar rats [3]) [%] | EEG frequency band 12-16 Hz (Wistar rats [3]) | Effect of atropine given 15 min before the compound (Wistar rats [3]) | EEG total power (fronto-parietal cortex), Baseline (Wistar rats [3]) | EEG total power (fronto-parietal cortex), 15′ (Wistar rats [3]) | EEG total power (fronto-parietal cortex), 30′ (Wistar rats [3]) | EEG total power (fronto-parietal cortex), 45′ (Wistar rats [3]) | EEG total power (fronto-parietal cortex), 60′ (Wistar rats [3]) | EEG total power (fronto-parietal cortex), 75′ (Wistar rats [3]) | EEG total power (fronto-parietal cortex), 90′ (Wistar rats [3]) | EEG power (qEEG of neocortical activity), 15″ (rats) [μV/s] | EEG power (qEEG of neocortical activity), 30″ (rats) [μV/s] | further results
1 | C[N+]1(C)CCOC(O)(c2ccc(-c3ccc(C4(O)C[N+](C)(C)CCO4)cc3)cc2)C1.[Br-].[Br-] (centres unmarked) [Hch3, Hemicholinium-3, reference compound] |  |  |  |  |  |  |  |  |  |  |  |  |  |  |  |  |  |  |  |  | Behavioural and EEG effect of ICV administration [1]: behavioural sedation and sleep, EEG synchronization and increase in EEG total power
2 | C[N+](C)(C)CCOP(=O)(O)OP(=O)([O-])OC[C@H]1O[C@@H](n2ccc(N)nc2=O)[C@H](O)[C@@H]1O [CDP-choline, cytidine-5′-diphosphocholine, reference compound] | Alert response | Decrease | Sedation | No effects | 60 | 3.8 ± 1.3(*) % | 19.2 ± 1.5(*) % | 31.5 ± 0.9 | 18.5 ± 1.7 | 20.5 ± 1.3% | antagonize the effects | 98 ± 3.6 | 93 ± 2.9 | 271 ± 3.2 | 89 ± 2.9 | 65 ± 2(*) | 95 ± 3.3 | 103 ± 2.6 |  |  | Behaviour (Wistar rats [2]; 1 mg): No effects; EEG Activity (change of EEG total power) (Wistar rats [2]; 1 mg): No effects; Behaviour (Wistar rats [2]; 25 mg): Sedation; EEG Activity (change of EEG total power) (Wistar rats [2]; 25 mg): Increase
3 | Nc1c2c(nc3ccccc13)CCCC2 [THA, tacrine, reference compound] |  |  |  |  |  |  |  |  |  |  |  |  |  |  |  |  |  |  | 72.5 | 68 | EEG power (qEEG of neocortical activity), 45″ (rats): 75.5 μV/s; EEG power (qEEG of neocortical activity), 60″ (rats): 97.5 μV/s; EEG power (qEEG of neocortical activity), 75″ (rats): 122 μV/s; EEG power (qEEG of neocortical activity), 90″ (rats): 129.5 μV/s; EEG power (qEEG of neocortical activity), 105″ (rats): 135 μV/s; EEG power (qEEG of neocortical activity), 120″ (rats): 137 μV/s; EEG power (qEEG of neocortical activity), 135″ (rats): 119.5 μV/s; EEG power (qEEG of neocortical activity), Baseline (rats; rats): 118 μV/s
4 | pivaloylcholine trimethylacetate [PC-2] | Alert response | Decrease | Convulsions and death (50%) | Peaks | ≤ 15 | 2.4 ± 1.3(**) % | 21.3 ± 0.9% | 22.3 ± 1.3 | 13.5 ± 0.7 | 22.5 ± 1.6(*) % | antagonize the effects | 93 ± 3.5 | 50 ± 1.9(**) | 55 ± 2.5(*) | 90 ± 3.3 | 132 ± 1.5(*) | 96 ± 2.7 | 90 ± 3.6 | 58.5 | 64.5 | Change of slow EEG spectrum components (FIG. 3) (Wistar rats [3]): decrease in slow components (delta and theta) of the spectrum; Duration of the decrease in EEG total power (Wistar rats [3]; 5 mg i.p.): about 30 min; EEG 60 min after administration (Wistar rats [3]; 5 mg i.p., 60 min): rapid frequency activity (about 16 Hz) and significant increase (P<0.01) in EcoG total power; EEG power (qEEG of neocortical activity), 45″ (rats): 98 μV/s; EEG power (qEEG of neocortical activity), 60″ (rats): 103 μV/s; EEG power (qEEG of neocortical activity), 75″ (rats): 97.5 μV/s; EEG power (qEEG of neocortical activity), 90″ (rats): 110.3 μV/s; EEG power (qEEG of neocortical activity), 105″ (rats): 124 μV/s; EEG power (qEEG of neocortical activity), 120″ (rats): 120.5 μV/s; EEG power (qEEG of neocortical activity), 135″ (rats): 117.5 μV/s; EEG effect with tacrine given 30 min before (rats; rats, THA 5 mg/Kg i.p. 30 min before 15 μmol i.p.): long-lasting EEG desynchronization and significant decrease in EEG spectrum total power; EEG power (qEEG of neocortical activity), Baseline (rats; rats): 105 μV/s
